Measured values taken from ChEMBL document CHEMBL1201862, “PubChem BioAssay data set” (2004).
Activity calls are given as the source filed them.

Legend:
[1] = target: Nuclear receptor subfamily 0 group B member 1 (Homo sapiens, UniProt P51843); assay: Luminescence-based cell-based high throughput dose response assay for inhibitors of the orphan nuclear receptor subfamily 0, group B, member 1 (DAX1; NR0B1). [Related pubchem assays (depositor defined):AID504766, AID504790]; assay type: functional
Chain of Nuclear receptor subfamily 0 group B member 1 (P51843 whole entry): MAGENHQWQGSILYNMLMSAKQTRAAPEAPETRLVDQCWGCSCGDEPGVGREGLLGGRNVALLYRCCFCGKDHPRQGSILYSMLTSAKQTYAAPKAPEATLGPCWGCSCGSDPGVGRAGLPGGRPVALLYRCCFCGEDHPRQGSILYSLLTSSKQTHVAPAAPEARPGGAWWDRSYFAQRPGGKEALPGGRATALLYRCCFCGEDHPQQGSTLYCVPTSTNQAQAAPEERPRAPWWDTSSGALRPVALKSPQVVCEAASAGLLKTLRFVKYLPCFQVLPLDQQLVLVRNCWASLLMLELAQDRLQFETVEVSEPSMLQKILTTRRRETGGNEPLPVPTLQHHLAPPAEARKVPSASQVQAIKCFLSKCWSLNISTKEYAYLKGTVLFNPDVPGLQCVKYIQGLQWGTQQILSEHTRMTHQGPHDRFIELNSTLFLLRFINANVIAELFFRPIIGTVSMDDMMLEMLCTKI

[2] = system: HEK293; assay: cells; assay type: functional, cell-based; settings: Homo sapiens
[3] = target: T1, DNA repair and recombination protein RAD54-like (Homo sapiens, UniProt Q92698); assay: RAD54 Holliday junction migration blockers – biochemical, fluorescence, cherry-picked samples, dose series, confirmation (AID 651657); assay type: functional
T1 sequence (Q92698 whole entry): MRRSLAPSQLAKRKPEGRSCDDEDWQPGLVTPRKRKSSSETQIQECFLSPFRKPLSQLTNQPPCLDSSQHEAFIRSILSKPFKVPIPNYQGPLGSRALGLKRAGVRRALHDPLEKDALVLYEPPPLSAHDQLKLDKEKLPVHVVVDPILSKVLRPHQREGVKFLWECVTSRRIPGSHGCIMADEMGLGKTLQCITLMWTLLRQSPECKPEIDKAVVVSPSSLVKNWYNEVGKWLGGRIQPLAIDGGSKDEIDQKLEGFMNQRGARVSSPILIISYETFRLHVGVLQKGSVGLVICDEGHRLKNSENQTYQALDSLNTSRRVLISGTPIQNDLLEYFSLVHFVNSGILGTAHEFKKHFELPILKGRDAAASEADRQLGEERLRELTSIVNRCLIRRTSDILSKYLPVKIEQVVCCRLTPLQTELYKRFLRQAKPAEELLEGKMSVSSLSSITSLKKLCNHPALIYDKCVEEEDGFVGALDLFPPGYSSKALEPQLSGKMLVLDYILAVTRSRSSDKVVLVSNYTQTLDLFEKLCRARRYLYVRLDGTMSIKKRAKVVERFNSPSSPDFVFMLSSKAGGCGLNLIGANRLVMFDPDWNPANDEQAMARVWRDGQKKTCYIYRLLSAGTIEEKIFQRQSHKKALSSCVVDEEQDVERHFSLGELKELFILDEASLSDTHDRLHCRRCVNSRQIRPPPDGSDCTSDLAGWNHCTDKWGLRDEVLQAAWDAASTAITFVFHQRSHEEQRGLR

[4] = system: Streptococcus sp. 'group A'; assay: Streptococcus pyogenes SK(-)GAS viability under kanamycin – luminescence, BacTiterGlo, confirmation, counter-screen for streptokinase expression inhibitor project, dose response (AID 1900); assay type: functional, organism-based
[5] = target: Cysteine protease ATG4B (Homo sapiens, UniProt Q9Y4P1); assay type: functional;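 also: Fluorescence-based dose-response confirmation assay measuring inhibition of ATG4B activity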
Chain of Cysteine protease ATG4B (Q9Y4P1 whole entry): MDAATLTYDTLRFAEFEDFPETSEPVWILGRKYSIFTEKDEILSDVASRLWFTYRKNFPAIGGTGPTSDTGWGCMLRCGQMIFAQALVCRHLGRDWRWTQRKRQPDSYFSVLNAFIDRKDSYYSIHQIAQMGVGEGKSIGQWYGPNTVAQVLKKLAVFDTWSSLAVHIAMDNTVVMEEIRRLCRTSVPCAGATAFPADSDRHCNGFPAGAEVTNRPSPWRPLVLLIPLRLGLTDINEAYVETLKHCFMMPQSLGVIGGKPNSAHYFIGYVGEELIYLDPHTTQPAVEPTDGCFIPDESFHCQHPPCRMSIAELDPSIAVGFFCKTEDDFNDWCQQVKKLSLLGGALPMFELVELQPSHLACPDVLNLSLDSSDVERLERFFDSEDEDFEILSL

[6] = target: T2, Streptokinase A (Streptococcus pyogenes serotype M1, UniProt P10520); assay: viability-normalized secreted streptokinase activity reduction – plasminogen activation absorbance, OD405, dose response (AID 1914); assay type: functional, Streptococcus pyogenes M1 GAS;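 also: secreted streptokinase activity via plasminogen activation per viability signal from cell pellet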
T2 sequence (P10520 whole entry): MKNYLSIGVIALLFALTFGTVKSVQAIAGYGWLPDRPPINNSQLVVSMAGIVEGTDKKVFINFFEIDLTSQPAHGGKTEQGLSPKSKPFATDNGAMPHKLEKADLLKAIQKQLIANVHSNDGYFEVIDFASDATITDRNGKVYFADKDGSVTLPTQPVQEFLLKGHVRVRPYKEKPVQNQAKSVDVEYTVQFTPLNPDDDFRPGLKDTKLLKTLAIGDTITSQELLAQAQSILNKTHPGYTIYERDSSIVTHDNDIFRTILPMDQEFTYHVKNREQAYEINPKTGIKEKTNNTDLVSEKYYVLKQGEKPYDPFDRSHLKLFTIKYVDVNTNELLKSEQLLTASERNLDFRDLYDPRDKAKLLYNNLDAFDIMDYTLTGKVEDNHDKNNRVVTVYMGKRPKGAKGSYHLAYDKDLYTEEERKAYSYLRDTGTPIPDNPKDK

[7] = target: Phospholipase A2 (Homo sapiens, UniProt P04054); assay type: functional;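 also: confirmatory dose-response counterscreen on phospholipase A2, testing hits that came from an ultra-high-throughput screen for ATG4B inhibitors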
Chain of Phospholipase A2 (P04054 whole entry): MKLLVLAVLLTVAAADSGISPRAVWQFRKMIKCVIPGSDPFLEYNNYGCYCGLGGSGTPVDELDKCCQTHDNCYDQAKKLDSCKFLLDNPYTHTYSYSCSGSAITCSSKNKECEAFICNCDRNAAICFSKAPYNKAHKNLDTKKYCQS

[8] = system: Streptococcus; assay: GAS UMAA2166 growth inhibition – luminescence, BacTiterGlo, counter-screen for streptokinase expression inhibitor project, dose response (AID 1915); assay type: functional, organism-based;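 also: potency for reduction of bacterial viability or growth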
[9] = target: Heat shock protein HSP 90-alpha (Homo sapiens, UniProt P07900); assay type: functional, organism-based
[10] = target: HSP90 (Plasmodium falciparum 3D7, UniProt Q8IL32); assay type: functional, organism-based
Chain of HSP90 (Q8IL32 whole entry): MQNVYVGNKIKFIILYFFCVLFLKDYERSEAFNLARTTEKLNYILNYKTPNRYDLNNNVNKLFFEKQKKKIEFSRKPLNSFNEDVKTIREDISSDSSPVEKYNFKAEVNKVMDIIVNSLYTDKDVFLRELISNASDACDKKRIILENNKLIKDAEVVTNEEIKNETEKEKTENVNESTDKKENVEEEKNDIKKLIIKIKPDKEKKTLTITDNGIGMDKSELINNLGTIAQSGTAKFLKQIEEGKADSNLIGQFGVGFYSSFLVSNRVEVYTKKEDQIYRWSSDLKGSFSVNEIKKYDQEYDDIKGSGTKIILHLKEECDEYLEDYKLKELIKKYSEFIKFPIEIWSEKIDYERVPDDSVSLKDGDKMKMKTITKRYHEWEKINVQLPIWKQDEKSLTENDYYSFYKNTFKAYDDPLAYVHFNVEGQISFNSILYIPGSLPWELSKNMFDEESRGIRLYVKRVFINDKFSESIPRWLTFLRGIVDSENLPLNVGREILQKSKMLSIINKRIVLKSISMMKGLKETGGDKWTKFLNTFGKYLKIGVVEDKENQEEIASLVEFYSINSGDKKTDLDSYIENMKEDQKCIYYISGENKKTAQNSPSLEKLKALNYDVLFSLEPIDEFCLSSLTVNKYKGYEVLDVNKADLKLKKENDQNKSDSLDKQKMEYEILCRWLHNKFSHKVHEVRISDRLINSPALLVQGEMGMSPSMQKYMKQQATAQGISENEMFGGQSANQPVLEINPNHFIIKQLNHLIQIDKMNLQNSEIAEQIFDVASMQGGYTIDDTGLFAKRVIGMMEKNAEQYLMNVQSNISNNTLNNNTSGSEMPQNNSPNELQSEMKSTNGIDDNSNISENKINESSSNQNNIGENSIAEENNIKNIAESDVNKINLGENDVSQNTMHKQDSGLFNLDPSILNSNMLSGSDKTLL

[11] = cytotoxicity toward HCT116 cells – cell-based, CellTiter-Glo luminescence, IC50, dose response (AID 1117332); assay type: functional; settings: HCT-116
[12] = target: Paired box protein Pax-8 (Homo sapiens, UniProt Q06710); assay: PAX8 transcriptional activity inhibition in RMG-I – RMG-I cells, luciferase, cherry-pick, dose response (AID 687027); assay type: functional, cell-based;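 also: luciferase reporter driven by Pax8 target thyroperoxidase promoter measured by SteadyGlo luminescence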
Chain of Paired box protein Pax-8 (Q06710 whole entry): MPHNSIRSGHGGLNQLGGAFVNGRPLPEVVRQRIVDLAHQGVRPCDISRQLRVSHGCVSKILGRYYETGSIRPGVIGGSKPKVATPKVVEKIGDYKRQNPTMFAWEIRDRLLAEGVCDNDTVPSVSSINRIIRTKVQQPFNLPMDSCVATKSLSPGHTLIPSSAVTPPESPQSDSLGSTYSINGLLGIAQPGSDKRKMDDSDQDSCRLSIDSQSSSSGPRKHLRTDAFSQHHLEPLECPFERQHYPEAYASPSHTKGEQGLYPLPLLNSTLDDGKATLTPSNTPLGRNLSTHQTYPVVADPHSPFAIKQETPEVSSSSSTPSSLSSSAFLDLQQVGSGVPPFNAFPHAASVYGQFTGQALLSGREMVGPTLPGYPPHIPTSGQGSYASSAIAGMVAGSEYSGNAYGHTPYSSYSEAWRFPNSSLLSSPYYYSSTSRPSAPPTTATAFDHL

[13] = cytotoxicity toward HT-29 cells – cell-based, CellTiter-Glo luminescence, IC50, dose response (AID 1117330); assay type: functional
[14] = SNU-C1 cell viability reduction, dose response, CellTiter-Glo luminescence (AID 1117323); assay type: functional, cell-based
[15] = cytotoxicity toward Colo320 cells – cell-based, CellTiter-Glo luminescence, IC50, dose response (AID 1117334); assay type: functional; settings: COLO 320
[16] = rise of 2N DNA cells, HeLa – IC50, dose response (AID 1117349); assay type: functional, cell-based
[17] = viability loss of HPDE-C7K cells – cell-based, fluorescence, HTS, primary screen (AID 431); assay type: functional; settings: Homo sapiens
[18] = HPDE-C7 pancreatic duct cell viability loss – fluorescence, HTS (AID 430); assay type: functional, cell-based; settings: Homo sapiens
[19] = RKO cell viability reduction, dose response, CellTiter-Glo luminescence (AID 1117322); assay type: functional
[20] = rise of 4N DNA cells, HeLa – IC50, dose response (AID 1117351); assay type: functional, cell-based
[21] = Reduced DLD-1 viability, concentration-response, CellTiter-Glo luminescence (AID 1117352); assay type: functional
[22] = CellTiter-Glo luminescence survival assay, SW480 colon tumor line, concentration-response curve, half-maximal inhibitory concentration (AID 1117338); assay type: functional

## CCN(CC)CCCNC(=O)c1cc2c(=O)n(C)c3ccccc3c2n1C
[1]
  IC50: > 67.5 µM (inactive)
[2]
  IC50: > 67.5 µM (inactive)
[3]
  AC50: 26.9 µM (active)

## CSc1nnc2nc3c(c(O)n12)C1(CCCCC1)Cc1ccccc1-3
[4]
  EC50: 7.86 µM (active)
[5]
  IC50: 7.09 µM (active)
[6]
  EC50: > 150 µM (not active)
[7]
  IC50: 5.6 µM (active)
[8]
  EC50: 123 µM (active)

## Oc1c(I)cc(I)c2cccnc12 [IODOQUINOL]
[9]
  AC50: 0.391 µM (active)
[10]
  AC50: 0.314 µM (active)
[11]
  IC50: 0.041 µM (active)
[12]
  AC50: 4.87 µM (active)
[13]
  IC50: 0.705 µM (active)
[14]
  IC50: 0.0387 µM (active)
[15]
  IC50: 0.0213 µM (active)
[16]
  IC50: > 10 µM (inactive)
[17]
  EC50: 7.36 µM (active)
[18]
  EC50: 17.1 µM (active)
[19]
  IC50: 0.0227 µM (active)
[20]
  IC50: > 10 µM (inactive)
[21]
  IC50: 0.0178 µM (active)
[22]
  IC50: 0.0036 µM (active)
